Results as given in paper PMC6347765, “Streamlined SMFA and mosquito dark-feeding regime significantly improve malaria transmission-blocking assay robustness and sensitivity” (Malaria Journal, 2019).

What was measured:
[1] = test system: P. falciparum NF54 in An. coluzzii; experiment: Standard membrane feeding assay (SMFA) with AMPs added to gametocytaemic blood mix; oocyst counts in mosquito midguts; assay type: in vivo, Plasmodium falciparum; conditions: AMP at 50 μM final concentration in gametocytaemic blood mix fed to An. coluzzii; vs PBS-treated control; oocysts counted seven days post-infection; P < 0.001; Fig. 4a
Method: The An. coluzzii N’gousso strain colonized from field-collected mosquitoes of the An. gambiae M molecular form in 2006 in Yaoundé, Cameroon, and the P. falciparum NF54 strain (MRA-1000, patient E) obtained from the MR4 were used for all the experiments reported in this paper. Mosquitoes were reared and maintained at standard insectary conditions (27 ± 1 °C and 70 ± 5%) humidity on a 12:12 light/dark (L:D) cycle: 11.5 h full light of ~ 300 lx starting at 6 am and 11.5 h darkness starting at 6 p.m., separated by 0.5 h dawn and dusk transitions, respectively. All mosquito infection experiments took place between 2 and 4 p.m.
Day 16/17. Gametocyte feeding A 14/15-day old gametocyte culture is used for mosquito infections. Three hours before gametocyte feed, the fructose-soaked cotton ball is removed from the cups to starve the mosquitoes, and mosquito cups are placed in the dark inside a second container for biosafety reasons. The container is placed in an incubator set at standard insectary conditions described above.
One hour before feeding heat-inactivated human serum (56 °C for 30 min) is defrosted at RT and placed on heat block at 37 °C. […]
The gametocyte culture is hand-swirled and placed on 37 °C heat block. […] The number of exflagellation centres formed in the 4 × 4 grid is determined under the microscope (10× objective). […]

[2] = test system: different Plasmodium species; conditions: injection into anopheline mosquitoes previously infected with different Plasmodium species; cited from earlier work
Source text: (§1) AMPs from various sources with different levels of plasmodicidal activities have been previously discovered. […] Both AMPs were previously shown to induce parasite killing.

P. falciparum = conditions: mixed with gametocytic blood; An. coluzzii; no reference printed in this sentence (preceding sentence ref 34); cited from earlier work
Source text: as §1

P. berghei ookinetes = conditions: 50 μM concentration; in vitro produced P. berghei ookinetes; cited from earlier work
Source text: as §1

P. berghei = conditions: in both An. coluzzii and Anopheles stephensi; cited from earlier work
Source text: as §1

| Substance | transmission-blocking activity (oocyst infection intensity) compared to control [1] | effect on parasite sporogony [2] | P. falciparum oocyst prevalence and intensity (P. falciparum) | killing of ookinetes (P. berghei ookinetes) | infection prevalence and intensity (P. berghei) |
| --- | --- | --- | --- | --- | --- |
| magainin | significant transmission-blocking activity | completely block parasite sporogony |  |  |  |
| melittin | significant transmission-blocking activity |  | reduce P. falciparum oocyst prevalence and intensity | kill | significant decrease in infection prevalence and intensity |
